Assay results: PubChem BioAssay AID651584 (Broad Institute, 2012)
“And” between values parts separate entries of the source, which are not always exact repeats. Equal values may be shown once. The source made the active and inactive calls.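 How the source made its calls: active means viability loss whose fitted half-maximal potency is at most twice the top valid dose for that sample; inconclusive means flat curve with 30 to 70% viability loss, or poor fit; inactive means the rest.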

Key:
[1] = tested on: MALME3 melanoma viability, CellTiter-Glo ATP luminescence, 24 h; assay: MALME3 melanoma cell viability reduction, dose response, orthogonal assay for MITF inhibitor project, CellTiter-Glo luminescence, dry powder, set 5 (AID 651584)
[2] = as above; details: MALME3 melanoma viability, CellTiter-Glo ATP luminescence, 24 h; at 35 µM (top of the series)

In the case of `O=C1C=C(Nc2ccccc2)C(=O)c2ccccc21`, the AC50 [1] is reported as 5.86 µM and 28.4 µM.

In the case of `NC1=C(NS(=O)(=O)c2ccc(Br)s2)C(=O)c2ccccc2C1=O`, the activity change, negative = viability loss [2] is reported as -3.99% (inactive).
